Measured values as given in US8344101B2, “Composition for improving brain function and method for improving brain function” (Calpis Co., Ltd., priority 2009, dated 2013).

System: scopolamine-induced amnesia
Test: Y-shaped maze test of spontaneous alternation behavior in mice with scopolamine-induced amnesia
Assay type: in vivo
Settings: male ddY mice, scopolamine 1 mg/kg s.c. 30 minutes before test
Method: Male mice (n=15 to 30) of the ddY strain (approximately 7-week old) were used, and they took food and water ad lib. Test substances used were 150 nmol/kg weight (380 μg/kg weight) and 500 nmol/kg weight (1280 μg/kg weight) of […](SEQ ID NO: 2 ). The test substances were administered to the mice once orally […] the execution of a Y-shaped maze test for evaluation of spontaneous alternation behavior. Further, 30 minutes before the execution of the Y-shaped maze test, 1 mg/kg weight of scopolamine was subcutaneously administered on the backs of the mice in order to induce brain dysfunction (dysmnesia and/or cognitive impairment) in the mice. In the Y-shaped maze test, a Y-shaped maze was used as an experimental device, in which the length of each arm was 40 cm, the height of the wall was 12 cm, the width of the floor was 3 cm, and the width of the upper part was 10 cm, and three arms were connected to each other at an angle of 120 degrees. Each of the mice was placed at the tip of any one of the arms of the Y-shaped maze, and then let go to freely explore in the maze for 8 minutes. The sequence of the arms each of the mice entered was recorded. The number of entries by each of the mice for each of the anus during the measurement time was counted to be the total number of entries. In the sequence, the combination in which three different arms were selected in succession (for example, with the three arms respectively called A, B, and C, if the sequence of the arms entered is ABCBACACB, the count is 4 inclusive of overlapping) was investigated, and the number of the count was used as the number of spontaneous alternation behavior. The percentage of spontaneous alternation behavior was calculated by dividing the number of spontaneous alternation behavior by a number obtained by subtracting 2 from the total number of entries, and multiplying a resultant number by 100. The percentage of spontaneous alternation behavior was used as an indicator. […] The measured values were expressed in the form of mean ±standard error for each group. A significant difference between the control group and the scopolamine control group was calculated using Student's t-test. Further, a significant difference between the scopolamine control group and the […] (SEQ ID NO: 2 )-administered group was calculated using Student's t-test.
Male mice (n=15 to 30) of the ddY strain (approximately 7-week old) were used, and they took food and water ad lib. Test substances used here were: 500 nmol/kg weight (1280 μg/kg weight) of […](SEQ ID NO: 2 ); 500 nmol/kg weight (1140 μg/kg weight) of […](SEQ ID NO: 1 ) ([…]); 500 nmol/kg weight (1400 μg/kg weight) of […]([…]) (SEQ ID NO: 3 ); and 500 nmol/kg weight (1150 μg/kg weight) of Ser-Trp-Met-His-Gln-Pro-His-Gln-Pro-Leu-Pro-Pro-Thr-Val-Met-Phe-Pro-Pro-Gln (SWMHQPHQPLPPTVMFPPQ) (SEQ ID NO: 5). The test substances were administered to the mice once orally 60 minutes before the execution of a Y-shaped maze test for evaluation of spontaneous alternation behavior. Further, 30 minutes before the execution of the Y-shaped maze test, 1 mg/kg weight of scopolamine was subcutaneously administered on the backs of the mice in order to induce brain dysfunction (dysmnesia and/or cognitive impairment) in the mice. […] The arms each of the mice entered were sequentially recorded. The number of entries by each of the mice for each of the arms during the measurement time was counted to be the total number of entries. […]

[1] = Example 2, single oral dose 500 nmol/kg weight 60 minutes before Y-shaped maze test, FIG. 2

Sequence	prophylactic activity against amnesia (percentage of spontaneous alternation behavior) [1]	prophylactic activity against amnesia (percentage of spontaneous alternation behavior) (Example 1, single oral dose ranging from 150 nmol/kg weight to 500 nmol/kg weight (380 to 1280 μg/kg weight), given 60 before Y-shaped maze test, FIG. 1)
LQSWMHQPHQPLPPTVMFPPQSVL (Synthetic functional peptide)	had a prophylactic activity against amnesia	–
SWMHQPHQPLPPTVMFPPQSVL (Synthetic functional peptide)	had a prophylactic activity against amnesia	had a prophylactic activity against amnesia
SWMHQPHQPLPPTVMFPPQ (Synthetic comparative example peptide) [Ser-Trp-Met-His-Gln-Pro-His-Gln-Pro-Leu-Pro-Pro-Thr-Val-Met-Phe-Pro-Pro-Gln, C-terminally truncated related peptide tested for comparison]	did not show any activity	–
MHQPHQPLPPTVMFPPQSVL (Synthetic functional peptide)	had a prophylactic activity against amnesia	–
